Assay results published in patent US7812037B2, “Dual antiplatelet/anticoagulant pyridoxine analogs” (Medicure International, Inc., priority 2004, dated 2010).

Legend:
[1] = test system: platelets (platelet rich plasma); experiment: Inhibition of platelet aggregation, thrombin receptor activating peptide (TRAP) as agonist; type: cell-based; details: TRAP 12 μM, human PRP, read-out: % Reduction in Aggregation TRAP (12 μM); for inhibition at 30 µM: compound 30 μM
Method: (§1) Platelet rich plasma (PRP) was obtained by drawing whole blood from normal human donors (not on any medication) into sodium citrate tubes (3.2%), and centrifuging at 160×g for about 10 minutes. Platelet poor plasma (PPP) was obtained by centrifuging the remainder of the sample after the platelets were removed at 800×g for about 10 minutes. The PRP was adjusted to a count of 280×10^9/L using a mixture of PRP and PPP. The platelets (200 μL) were incubated with the test compounds (25 μL) adjusted to various concentrations (5, 10, 20, 30, 50, and 100 μM) for about 30 minutes at room temperature (approximate final platelet count in the incubation mixture of 250×10^9/L). The samples were incubated for about 3 minutes at about 37° C., and then transferred to the mixing wells of a Chrono-log 4 channel aggregometer (Chrono-log Corp., Havertown, Pa.). After baselines were established, agonist (25 μL of 40 μM ADP (Sigma, St. Louis, Mo.) or 25 μL of 50 μg/mL and 10 μg/mL collagen (Helena Laboratories, Beaumont, Tex.) or 25 μL of 120 μM thrombin receptor activating peptide (TRAP) (Sigma)) was then added. Aggregation was monitored for 5 minutes at 37° C. with stirring (1000 rpm). The amplitude and slope of each tracing were calculated to determine the amount of aggregation. Control samples were performed using only solvent. The % reduction in aggregation was calculated for each sample compared to the proper solvent control.

Human Thrombin = molecular target: T1, Human Thrombin (Homo sapiens, UniProt P00734); experiment: Determination of Anti-Thrombin (Factor IIa) Activity; type: biochemical; details: competitive inhibition; substrate Pefachrome Thr; pH 8.3
T1 construct: Determination of Anti-Thrombin (Factor IIa) Activity; purchased Calbiochem
Method: The test compounds (40 μL) adjusted to various concentrations (0.25 to 100 μM) were incubated with Human Thrombin (Calbiochem) enzyme (5 nM) in 31 mM Tris buffer (pH 8.3) containing 81 mM sodium chloride and 0.63% bovine serum albumin (fraction V)(80 μL) at room temperature for about 30 minutes. 80 μL of Pefachrome® Thr (Pentapharm) was adjusted to various concentrations, from 62.5 μM to 1.25 mM. The activity was measured at about 37° C. by monitoring absorbance at 405 nm for about 15 minutes using a FLUOstar OPTIMA™. Control sample was the solvent alone. Each test compound was analyzed twice using 4 concentrations of compound plus control (in duplicate) with 5 concentrations of substrate (50, 100, 200, 300 and 500 μM). The specific activity (ΔA405/min/nM enzyme) was determined for each data point. The Ki for competitive inhibition was then determined for each test compound using the Enzyme Kinetics module of Sigmaplot 8.0 (SPSS).

Human FXa = molecular target: T2, Human FXa (Homo sapiens, UniProt P00742); experiment: Determination of Anti-Factor Xa (Fxa) Activity; type: biochemical; details: competitive inhibition; substrate Pefachrome Xa; pH 7.5
T2 construct: Determination of Anti-Factor Xa (Fxa) Activity; purchased Calbiochem
T2 sequence (P00742 235-488 limits assumed): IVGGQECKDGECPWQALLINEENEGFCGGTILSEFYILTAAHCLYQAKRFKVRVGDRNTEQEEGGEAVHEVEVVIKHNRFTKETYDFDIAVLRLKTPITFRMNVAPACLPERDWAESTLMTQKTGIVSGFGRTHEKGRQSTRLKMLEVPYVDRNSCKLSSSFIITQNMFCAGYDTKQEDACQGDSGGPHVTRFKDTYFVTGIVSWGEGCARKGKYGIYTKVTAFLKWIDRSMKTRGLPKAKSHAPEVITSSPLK
T2 sequence (P00742 41-179 partner limits assumed): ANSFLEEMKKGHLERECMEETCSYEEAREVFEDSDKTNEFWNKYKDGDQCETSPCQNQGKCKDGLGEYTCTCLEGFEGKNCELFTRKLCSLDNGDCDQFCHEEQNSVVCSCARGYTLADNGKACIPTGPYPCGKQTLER
Method: The test compounds (40 μL) adjusted to various concentrations (0.25 to 100 μM) were incubated with 5 nM Human FXa (Calbiochem, San Diego, Calif.) enzyme in 125 mM Tris [Tris(hydroxymethyl)aminomethane] buffer (pH 7.5) containing 375 mM sodium chloride and 0.25% polyethylene glycol (MW 8000) (80 μL) at room temperature for about 30 minutes. 80 μL of synthetic substrate Pefachrome® Xa (Pentapharm, Basel, Switzerland), adjusted to various concentrations from 125 μM to 1.25 mM, was added. The activity was measured at 37° C. by monitoring absorbance at 405 nm for 15 minutes using a FLUOstar OPTIMA™ (BMG Labtech GmbH, Offenburg, Germany) microplate reader. Control sample was the solvent alone. Each test compound was analyzed twice using 4 concentrations of compound plus control (in duplicate) with 5 concentrations of substrate (50, 100, 200, 300 and 500 μM). The specific activity (ΔA405/min/nM enzyme) was determined for each data point. The Ki for competitive inhibition was then determined for each test compound using the Enzyme Kinetics module of Sigmaplot 8.0 (SPSS Inc., Chicago, Ill.).

[2] = test system: platelets (platelet rich plasma); experiment: Inhibition of platelet aggregation, ADP as agonist; type: cell-based; details: ADP 4 μM, human PRP, read-out: % Reduction in Aggregation ADP (4 μM); for inhibition at 30 µM: compound 30 μM
Method: as §1

[3] = test system: platelets (platelet rich plasma); experiment: Inhibition of platelet aggregation, collagen as agonist; type: cell-based; details: human PRP; for inhibition at 5 µM: compound 5 μM; for inhibition at 30 µM: compound 30 μM
Method: as §1

[4] = collagen 1 μg/mL, read-out: % Reduction in Aggregation Collagen (1 μg/mL)
[5] = collagen 5 μg/mL, read-out: % Reduction in Aggregation Collagen (5 μg/mL)

Row | SMILES | inhibition at 5 µM ([1]; compound 5 μM) | Ki (Human Thrombin) | Ki (Human FXa) | inhibition at 5 µM ([2]; compound 5 μM) | inhibition at 5 µM [3, 4] | inhibition at 5 µM [3, 5] | inhibition at 30 µM [1] | inhibition at 30 µM [2] | inhibition at 30 µM [3, 4] | inhibition at 30 µM [3, 5] | inhibition at 10 µM ([1]; compound 10 μM) | inhibition at 10 µM ([2]; compound 10 μM) | inhibition at 10 µM ([3]; compound 10 μM, collagen 1 μg/mL, read-out: % Reduction in Aggregation Collagen (1 μg/mL)) | inhibition at 50 µM ([1]; compound 50 μM) | inhibition at 50 µM ([2]; compound 50 μM) | inhibition at 50 µM ([3]; compound 50 μM, collagen 1 μg/mL, read-out: % Reduction in Aggregation Collagen (1 μg/mL))
1 | Cc1ncc(CNc2ccc(-c3ccc(C(=N)N)cc3)cc2)c(CNCCCCCC(=O)O)c1OCc1ccc(C(=N)N)cc1 [Compound 56, 6-({3-(4-Carbamimidoyl-benzyloxy)-5-[(4′-carbamimidoyl-biphenyl-4-ylamino)-methyl]-2-methyl-pyridin-4-ylmethyl}-amino) hexanoic acid] | 90% | 0.848 µM | 6.2 µM | 96% | 91% | 63% | – | – | – | – | – | – | – | – | – | –
2 | Cc1ncc(CNc2ccc(-c3ccc(C(=N)N)cc3)cc2)c(C)c1OCc1ccc(C(=N)N)cc1 [Compound 25, 4′-{[5-(4-Carbamimidoyl-benzyloxy)-4,6-dimethyl-pyridin-3-ylmethyl]-amino}-biphenyl-4-carboxamidine] | – | 3.77 µM | 0.32 µM | – | – | – | 95% | 93% | 96% | 52% | – | – | – | – | – | –
3 | Cc1ncc(CNc2ccc(-c3ccc(C(=N)N)cc3)cc2)c(C)c1OCc1cccc(C(=N)N)c1 [Compound 29, 4′-{[5-(3-Carbamimidoyl-benzyloxy)-4,6-dimethyl-pyridin-3-ylmethyl]-amino}-biphenyl-4-carboxamidine] | – | 4.6 µM | 0.14 µM | – | – | – | 32% | 52% | 32% | 15% | – | – | – | – | – | –
4 | Cc1ncc(CNc2ccc(-c3ccc(C(=N)N)cc3)cc2)c(CO)c1OCc1ccc(C(=N)N)cc1 [Compound 6, 4′-{[5-(4-Carbamimidoyl-benzyloxy)-4-hydroxymethyl-6-methyl-pyridin-3-ylmethyl]-amino}-biphenyl-4-carboxamidine] | – | 10.3 µM | 2.3 µM | – | – | – | 86% | 89% | 100% | 44% | – | – | – | – | – | –
5 | Cc1ncc(CNc2ccc(-c3ccc(C(=N)N)cc3)cn2)c(CO)c1OCc1ccc(C(=N)N)cc1 [Compound 60] | – | 11 µM | 25 µM | – | – | – | 89% | 87% | 47% | 26% | – | – | – | – | – | –
6 | Cc1ncc(CNc2ccc(C(=N)N)cc2)c(C)c1OCc1ccc(C(=N)N)cc1 [Compound 31, 4-{[5-(4-Carbamimidoyl-benzyloxy)-4,6-dimethyl-pyridin-3-ylmethyl]-amino}-benzamidine] | – | 0.062 µM | 1.34 µM | – | – | – | – | – | – | – | 84% | 80% | 83% | – | – | –
7 | Cc1ncc(CNc2ccc(C(=N)N)cc2)c(C)c1OCc1cccc(C(=N)N)c1 [Compound 33, 4-{[5-(3-Carbamimidoyl-benzyloxy)-4,6-dimethyl-pyridin-3-ylmethyl]-amino}-benzamidine] | – | 0.031 µM | 0.284 µM | – | – | – | – | – | – | – | – | – | – | 79% | 84% | 81%
